# Reference: ChEMBL document CHEMBL3734707, “Synthesis and biological evaluation of pyrazolopyrimidines as potential antibacterial agents” (2015)
# Calls of active or inactive are those of the source. The calls are words filed in the database; no cut-off is given here.
# Experiments:
# [1] = biological target: T1, 4-diphosphocytidyl-2-C-methyl-D-erythritol kinase (Burkholderia thailandensis (strain ATCC 700388 / DSM 13276 / CIP106301 / E264)) (UniProt Q2T1B6); assay: Binding affinity to Burkholderia thailandensis E264 recombinant IspE (1 to 293 residues) at 250 uM by STD-NMR analysis in presence of ADP
# T1 sequence (whole entry): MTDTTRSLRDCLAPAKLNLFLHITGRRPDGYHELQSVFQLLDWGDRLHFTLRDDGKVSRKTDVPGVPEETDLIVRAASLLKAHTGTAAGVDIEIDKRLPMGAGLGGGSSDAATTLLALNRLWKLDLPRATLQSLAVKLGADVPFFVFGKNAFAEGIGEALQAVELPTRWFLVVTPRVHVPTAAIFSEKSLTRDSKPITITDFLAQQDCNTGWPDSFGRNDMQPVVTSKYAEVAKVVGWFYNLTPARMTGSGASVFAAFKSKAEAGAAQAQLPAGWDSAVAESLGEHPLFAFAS
# [2] = biological target: T1, 4-diphosphocytidyl-2-C-methyl-D-erythritol kinase (Burkholderia thailandensis (strain ATCC 700388 / DSM 13276 / CIP106301 / E264)); assay: Binding affinity to Burkholderia thailandensis E264 recombinant IspE (1 to 293 residues) assessed as maximum spectral signal at 250 uM by STD-NMR analysis
# [3] = biological target: T1, 4-diphosphocytidyl-2-C-methyl-D-erythritol kinase (Burkholderia thailandensis (strain ATCC 700388 / DSM 13276 / CIP106301 / E264)); assay: Binding affinity to Burkholderia thailandensis E264 recombinant IspE (1 to 293 residues) at 250 uM by STD-NMR analysis in presence of ADP and CDP
# [4] = biological target: T2, 2-C-methyl-D-erythritol 4-phosphate cytidylyltransferase (Burkholderia thailandensis (strain ATCC 700388 / DSM 13276 / CIP106301 / E264)) (UniProt Q2SWT6); assay: Binding affinity to Burkholderia thailandensis E264 recombinant IspD (1 to 236 residues) at 250 uM by STD-NMR analysis in presence of CDP
# T2 sequence (whole entry): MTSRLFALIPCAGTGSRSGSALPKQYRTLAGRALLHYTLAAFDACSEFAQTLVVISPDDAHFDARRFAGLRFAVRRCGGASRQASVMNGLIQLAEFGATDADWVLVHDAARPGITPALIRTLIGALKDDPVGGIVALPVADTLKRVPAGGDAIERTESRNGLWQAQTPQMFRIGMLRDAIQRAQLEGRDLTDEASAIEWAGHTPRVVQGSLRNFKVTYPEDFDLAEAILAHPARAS
# [5] = biological target: T2, 2-C-methyl-D-erythritol 4-phosphate cytidylyltransferase (Burkholderia thailandensis (strain ATCC 700388 / DSM 13276 / CIP106301 / E264)); assay: Binding affinity to Burkholderia thailandensis E264 recombinant IspD (1 to 236 residues) assessed as maximum spectral signal at 250 uM by STD-NMR analysis
# [6] = tested on: Pseudomonas aeruginosa; assay: Antibacterial activity against Pseudomonas aeruginosa ATCC 27853 at 1 mM after 24 to 48 hrs by Kirby-Bauer disc diffusion susceptibility test; type: functional; conditions: read-out: DIZ
# [7] = tested on: Burkholderia thailandensis; assay: Antibacterial activity against Burkholderia thailandensis E264 at 1 mM after 24 to 48 hrs by Kirby-Bauer disc diffusion susceptibility test; type: functional; conditions: read-out: DIZ
# [8] = tested on: Pseudomonas aeruginosa; assay: Antibacterial activity against Pseudomonas aeruginosa ATCC 27853 at 0.5 mM after 24 to 48 hrs by Kirby-Bauer disc diffusion susceptibility test; type: functional; conditions: read-out: DIZ
# [9] = tested on: Burkholderia thailandensis; assay: Antibacterial activity against Burkholderia thailandensis E264 at 0.5 mM after 24 to 48 hrs by Kirby-Bauer disc diffusion susceptibility test; type: functional; conditions: read-out: DIZ
# [10] = tested on: Pseudomonas aeruginosa; assay: Antibacterial activity against Pseudomonas aeruginosa ATCC 27853 at 0.1 mM after 24 to 48 hrs by Kirby-Bauer disc diffusion susceptibility test; type: functional; conditions: read-out: DIZ
# [11] = tested on: Burkholderia thailandensis; assay: Antibacterial activity against Burkholderia thailandensis E264 at 0.1 mM after 24 to 48 hrs by Kirby-Bauer disc diffusion susceptibility test; type: functional; conditions: read-out: DIZ
Structure (SMILES),Activity [1],%max [2],Activity [3],Activity [4],%max [5],zone of inhibition at 1000 µM [6],zone of inhibition at 1000 µM [7],zone of inhibition at 500 µM [8],zone of inhibition at 500 µM [9],zone of inhibition at 100 µM [10],zone of inhibition at 100 µM [11]
C[C@H](Nc1ncnc2c1cnn2C)c1ccccc1,Active,17%,inactive,–,–,–,–,–,–,–,–
Cn1ncc2c(NCc3ccc(Cl)c(Cl)c3)ncnc21,Active,24%,inactive,Active,6%,–,–,–,–,–,–
Cn1ncc2c(NCCc3ccccc3F)ncnc21,Active,10%,inactive,–,–,–,–,–,–,–,–
Cn1ncc2c(NCc3ccc(Cl)cc3)ncnc21,Active,12%,inactive,Active,6%,–,–,–,–,–,–
Cn1ncc2c(NCCc3ccc(O)cc3)ncnc21,Active,16%,inactive,Active,14%,–,–,–,–,–,–
Cn1ncc2c(NCCc3cccc(F)c3)ncnc21,Active,17%,inactive,–,–,–,–,–,–,–,–
CC(C)(C)n1ncc2c(NCCc3c(F)cccc3Cl)ncnc21,Active,17%,inactive,inactive,10%,–,–,–,–,–,–
CC(C)(C)n1ncc2c(NCc3ccccc3)ncnc21,Active,15%,inactive,–,–,–,–,–,–,–,–
CC(C)(C)n1ncc2c(NCc3cccc([N+](=O)[O-])c3)ncnc21,Active,21%,inactive,–,–,–,–,–,–,–,–
Cn1ncc2c(NCCc3c[nH]c4ccccc34)ncnc21,Active,14%,inactive,–,–,0 mm,14 mm,0 mm,12 mm,0 mm,0 mm
NC[C@H]1O[C@H](O[C@H]2[C@H](O)[C@@H](O[C@H]3O[C@H](CO)[C@@H](O)[C@H](N)[C@H]3O)[C@H](N)C[C@@H]2N)[C@H](O)[C@@H](O)[C@@H]1O [KANAMYCIN],–,–,–,–,–,0 mm,30 mm,0 mm,22 mm,0 mm,6 mm
CC(C)(C)n1ncc2c(NCc3ccc(Cl)c(Cl)c3)ncnc21,Active,21%,inactive,–,–,–,–,–,–,–,–
CC(C)(C)n1ncc2c(NCc3ccco3)ncnc21,Active,17%,inactive,–,–,–,–,–,–,–,–
Cn1ncc2c(NCc3ccccc3)ncnc21,Active,13%,inactive,–,–,–,–,–,–,–,–
Cn1ncc2c(NCCc3ccc(Cl)cc3)ncnc21,Active,12%,inactive,–,–,–,–,–,–,–,–
Cn1ncc2c(NCc3ccc(F)cc3)ncnc21,Active,20%,inactive,–,–,–,–,–,–,–,–
Cn1ncc2c(NCc3cccc(F)c3)ncnc21,Active,24%,inactive,–,–,–,–,–,–,–,–
CC(C)(C)n1ncc2c(NCCc3c(Cl)cccc3Cl)ncnc21,Active,12%,inactive,–,–,–,–,–,–,–,–
Cn1ncc2c(NCCc3ccc(Cl)cc3Cl)ncnc21,Active,28%,inactive,Active,8%,–,–,–,–,–,–
Cn1ncc2c(NCCc3c(F)cccc3Cl)ncnc21,Active,14%,inactive,inactive,6%,–,–,–,–,–,–
Cn1ncc2c(NCCc3ccc(F)cc3)ncnc21,Active,11%,inactive,–,–,–,–,–,–,–,–
Cn1ncc2c(NCc3ccccc3F)ncnc21,Active,14%,inactive,–,–,–,–,–,–,–,–
CC(C)(C)n1ncc2c(NCCO)ncnc21,–,–,–,–,–,20 mm,12 mm,12 mm,8 mm,0 mm,0 mm
